From patent US20240376073A1 (Hoffmann-La Roche Inc., priority 2021, published 2024)
Where a name gives a salt, the structure may show the parent alone. Read-outs that look alike come from different tables or passages of the source.

Tested on: Acinetobacter baumannii ATCC17961
Assay: Antimicrobial susceptibility testing: 90% growth inhibitory concentration (IC90) determination
Assay type: cell-based
Conditions: Iso-Sensitest broth, growth by OD 600 nm over 16 h, 35±2° C.
Method: The in vitro antimicrobial activity of the compounds was determined according to the following procedure:
The assay used a 10-points Iso-Sensitest broth medium to measure quantitatively the in vitro activity of the compounds against Acinetobacter baumannii ATCC17961.
Stock compounds in DMSO were serially twofold diluted (e.g. range from 50 to 0.097 μM final concentration) in 384 wells microtiter plates and inoculated with 49 μl the bacterial suspension in Iso-Sensitest medium to have a final cell concentration of ˜5×10^(5) CFU/ml in a final volume/well of 50 ul/well. Microtiter plates were incubated at 35±2° C.
Bacterial cell growth was determined with the measurement of optical density at λ=600 nm each 20 minutes over a time course of 16 h. Growth inhibition was calculated during the logarithmic growth of the bacterial cells with determination of the concentration inhibiting 50% (IC50) and 90% (IC90) of the growth.
Table 1 provides the […] growth inhibitory concentrations (IC90) in micromoles per liter of the compounds of present invention obtained against the strain Acinetobacter baumannii ATCC17961.

[1] = Acinetobacter baumannii ATCC17961, read-out: ATCC 17961 IC90
[2] = Acinetobacter baumannii, ATCC17961, 16 h, read-out: ATCC 17961 IC90, Acinetobacter baumannii ATCC17961

| IC90 [1] [nM] | Compound | IC90 [2] [nM] |
| --- | --- | --- |
| 250 | COc1ccc(-c2cnc(C(=O)Nc3ccc(C(=O)N4CC(NC(=O)C5CC[N+](C)(C)CC5)C4)c(Cl)c3)n2C)c(F)c1F [Example B17, N-[1-[2-chloro-4-[[5-(2,3-difluoro-4-methoxy-phenyl)-1-methyl-imidazole-2-carbonyl]amino]benzoyl]azetidin-3-yl]-1,1-dimethyl-piperidin-1-ium-4-carboxamide; formate] | – |
| 150 | COc1ccc(-c2cnc(C(=O)Nc3ccc(C(=O)N[C@H]4[C@@H]5CN(C(=O)N[C@@H]6C[N+](C)(C)C[C@H]6O)C[C@@H]54)c(Cl)c3)n2C)c(F)c1F [Example B55, (exo)-6-[[2-chloro-4-[[5-(2,3-difluoro-4-methoxy-phenyl)-1-methyl-imidazole-2-carbonyl]amino]benzoyl]amino]-N-[(trans)-4-hydroxy-1,1-dimethyl-pyrrolidin-1-ium-3-yl]-3-azabicyclo[3.1.0]hexane-3-carboxamide formate] | – |
| 130 | COc1ccc(-c2cnc(C(=O)Nc3ccc(C(=O)N4CCN(C(=O)C5CC[N+](C)(C)CC5O)CC4)c(Cl)c3)n2C)c(F)c1F (stereo not drawn) [Example B33, N-[3-chloro-4-[4-(3-hydroxy-1,1-dimethyl-piperidin-1-ium-4-carbonyl)piperazine-1-carbonyl]phenyl]-5-(2,3-difluoro-4-methoxy-phenyl)-1-methyl-imidazole-2-carboxamide; formate] | – |
| 75 | COc1ccc(-c2cnc(C(=O)Nc3ccc(C(=O)N4CCN(C(=O)C5CC[N+](C)(C)CC5)CC4)c(Cl)c3)n2C)c(F)c1F [Example B10, N-[3-chloro-4-[4-(1,1-dimethylpiperidin-1-ium-4-carbonyl)piperazine-1-carbonyl]phenyl]-5-(2,3-difluoro-4-methoxy-phenyl)-1-methyl-imidazole-2-carboxamide; formate] | – |
| 39 | Cn1c(-c2ccc(OC(F)F)c(Cl)c2F)cnc1C(=O)Nc1ccc(C(=O)N2CCN(C(=O)[C@@H]3C[C@@H](O)C[N+]3(C)C)CC2)c(Cl)c1 [Example B47, 5-[3-chloro-4-(difluoromethoxy)-2-fluoro-phenyl]-N-[3-chloro-4-[4-[(2S,4R)-4-hydroxy-1,1-dimethyl-pyrrolidin-1-ium-2-carbonyl]piperazine-1-carbonyl]phenyl]-1-methyl-imidazole-2-carboxamide; iodide] | – |
| 190 | COc1ccc(-c2cnc(C(=O)Nc3ccc(C(=O)N4CCN(C(=O)CC[N+](C)(C)CC(N)=O)CC4)c(C)c3)n2C)c(F)c1F [Example B3, (2-amino-2-oxo-ethyl)-[3-[4-[4-[[5-(2,3-difluoro-4-methoxy-phenyl)-1-methyl-imidazole-2-carbonyl]amino]-2-methyl-benzoyl]piperazin-1-yl]-3-oxo-propyl]-dimethyl-ammonium; 2,2,2-trifluoroacetate] | – |
| 73 | COc1ccc(-c2cnc(C(=O)Nc3ccc(C(=O)N4CCN(C(=O)C5CC[N+](C)(CC(N)=O)CC5)CC4)c(Cl)c3)n2C)c(F)c1F (stereo not drawn) [Example C5, N-[4-[4-[1-(2-amino-2-oxo-ethyl)-1-methyl-piperidin-1-ium-4-carbonyl]-piperazine-1-carbonyl]-3-chloro-phenyl]-5-(2,3-difluoro-4-methoxy-phenyl)-1-meth-yl-imidazole-2-carboxamide; formate] | – |
| 61 | Cn1c(-c2ccc(OCF)c(F)c2F)cnc1C(=O)Nc1ccc(C(=O)N2CCN(C(=O)C[N+](C)(C)C)CC2)c(Cl)c1 [Example B56, [2-[4-[2-chloro-4-[[5-[2,3-difluoro-4-(fluoromethoxy)phenyl]-1-methyl-imidazole-2-carbonyl]amino]benzoyl]piperazin-1-yl]-2-oxo-ethyl]-trimethyl-ammonium; formate] | – |
| 220 | CCc1cc(NC(=O)c2ncc(-c3ccc(OC(F)F)c(F)c3F)n2C)ccc1C(=O)N1CCN(C(=O)C2CC[N+](C)(CC3CCNC3)CC2)CC1 (stereo not drawn) [Example C17, 5-[4-(difluoro-methoxy)-2,3-difluoro-phenyl]-N-[3-ethyl-4-[4-[1-methyl-1-(pyr-rolidin-3-ylmeth-yl)piperidin-1-ium-4-carbonyl]-piperazine-1-carbonyl]phenyl]-1-methyl-imid-azole-2-carbox-amide; 2,2,2-trifluoroacetate; 2,2,2-trifluoro-acetic acid] | – |
| 51 | Cn1c(-c2ccc(OC(F)F)c(F)c2F)cnc1C(=O)Nc1ccc(C(=O)N2CCN(C(=O)C[N+](C)(C)C)CC2)c(Cl)c1 [Example B12, [2-[4-[2-chloro-4-[[5-[4-(difluoromethoxy)-2,3-difluoro-phenyl]-1-methyl-imidazole-2-carbonyl]amino]benzoyl]piperazin-1-yl]-2-oxo-ethyl]-trimethyl-ammonium; formate] | – |

More lines, now with the values behind:

| Compound | IC90 [1] [nM] | IC90 [2] [nM] |
| --- | --- | --- |
| COCCCn1cc(CNC(=O)c2ccc(NC(=O)c3ncc(-c4ccc(OC)c(F)c4F)n3C)cc2Cl)c[n+]1C [Example A25, N-[3-chloro-4-[1-(3-methoxypropyl)-2-methyl-pyrazol-2-ium-4-yl]methylcarbamoyl]phenyl]-5-(2,3-difluoro-4-methoxy-phenyl)-1-methyl-imidazole-2-carboxamide; formate] | 410 | – |
| COc1ccc(-c2cnc(C(=O)Nc3ccc(C(=O)N4CCN(C(=O)[C@@H]5CC[C@H](O)C[N+]5(C)C)CC4)c(Cl)c3)n2C)c(F)c1F [Example B46, N-[3-chloro-4-[4-[(2S,5S)-5-hydroxy-1,1-dimethyl-piperidin-1-ium-2-carbonyl]piperazine-1-carbonyl]phenyl]-5-(2,3-difluoro-4-methoxy-phenyl)-1-methyl-imidazole-2-carboxamide; formate] | – | 120 |
| COc1ccc(-c2cnc(C(=O)Nc3ccc(C(=O)NCc4cn(CCO)[n+](C)c4)c(Cl)c3)n2C)c(F)c1F [Example A20, N-[3-chloro-4-[[1-(2-hydroxyethyl)-2-methyl-pyrazol-2-ium-4-yl]methylcarbamoyl]phenyl]-5-(2,3-difluoro-4-methoxy-phenyl)-1-methyl-imidazole-2-carboxamide;formate] | 320 | – |
| COc1ccc(-c2cnc(C(=O)Nc3ccc(C(=O)N4CCN(C(=O)N5CC[N+](CCCN)(CC(=O)O)CC5)CC4)c(Cl)c3)n2C)c(F)c1F [Example C38, 2-[1-(3-aminopropyl)-4-[4-[2-chloro-4-[[5-(2,3-difluoro-4-methoxy-phenyl)-1-methyl-imidazole-2-carbonyl]amino]benzoyl]piperazine-1-carbonyl]piperazin-1-ium-1-yl]acetic acid formate] | – | 730 |
| COc1ccc(-c2cnc(C(=O)Nc3ccc(C(=O)N4CCN(C(=O)[C@@H]5C[C@@H](CO)C[N+]5(C)C)CC4)c(Cl)c3)n2C)c(F)c1F [Example B42, N-[3-chloro-4-[4-[(2S,4R)-4-(hydroxymethyl)-1,1-dimethyl-pyrrolidin-1-ium-2-carbonyl]piperazine-1-carbonyl]phenyl]-5-(2,3-difluoro-4-methoxy-phenyl)-1-methyl-imidazole-2-carboxamide; formate] | – | 140 |
| Cn1c(-c2ccc(OC(F)F)c(F)c2Cl)cnc1C(=O)Nc1ccc(C(=O)N2CCN(C(=O)C3CC[N+](CC(N)=O)(CC4CNC4)CC3)CC2)c(Cl)c1 (stereo not drawn) [Example C10] | – | 100 |
| Cn1c(-c2ccc(OCC#N)c(F)c2F)cnc1C(=O)Nc1ccc(C(=O)NCCOCC[N+](C)(C)C)c(Cl)c1 [Example A15, 2-[2-[[2-chloro-4-[[5-[4-(cyanomethoxy)-2,3-difluoro-phenyl]-1-methyl-imidazole-2-carbonyl]amino]benzoyl]amino]ethoxy]ethyl-trimethyl-ammonium formate] | 770 | – |
| COc1ccc(-c2cnc(C(=O)Nc3ccc(C(=O)NCc4cnc(NC(=O)C5CC[N+](C)(C)CC5)s4)c(Cl)c3)n2C)c(F)c1F [Example A29, N-[5-[2-chloro-4-[[5-(2,3-difluoro-4-methoxy-phenyl)-1-methyl-imidazole-2-carbonyl]amino]benzoyl]amino]methyl]thiazol-2-yl]-1,1-dimethyl-piperidin-1-ium-4-carboxamide; formate] | 170 | – |
| COc1ccc(-c2cnc(C(=O)Nc3ccc(C(=O)N4CCN(CC[N+](C)(C)C)CC4)c(Cl)c3)n2C)c(F)c1F [Example A9, 2-[4-[2-chloro-4-[[5-(2,3-difluoro-4-methoxy-phenyl)-1-methyl-imidazole-2-carbonyl]amino]benzoyl]piperazin-1-yl]ethyl-trimethyl-ammonium; iodide] | 130 | – |
| Cn1c(-c2ccc(OCC#N)c(F)c2F)cnc1C(=O)Nc1ccc(C(=O)NCCNC(=O)C[N+](C)(C)C)c(Cl)c1 [Example A14, [2-[2-[2-chloro-4-[[5-[4-(cyanomethoxy)-2,3-difluoro-phenyl]-1-methyl-imidazole-2-carbonyl]amino]benzoyl]amino]ethylamino]-2-oxo-ethyl]-trimethyl-ammonium formate] | 600 | – |
| Cn1c(-c2ccc(OCC#N)c(F)c2F)cnc1C(=O)Nc1ccc(C(=O)NCCOCC[N+](C)(C)CC(N)=O)c(Cl)c1 [Example A13, (2-amino-2-oxo-ethyl)-[2-[2-[[2-chloro-4-[[5-[4-(cyanomethoxy)-2,3-difluoro-phenyl]-1-methyl-imidazole-2-carbonyl]amino]benzoyl]amino]ethoxy]ethyl]-dimethyl-ammonium formate] | 640 | – |
